The text below walks through data of article PMC3747263 (PLoS ONE, 2013).

One experiment addresses LecB (PA-IIL) (Pseudomonas aeruginosa, UniProt Q9HYN5). It counts as binding. The conditions noted are these: read-out: LecB / KD.
The next experiment deals with T1, BambL (Burkholderia ambifaria, UniProt Q0B4G1).
T1 construct: gene Bamb_5415
As to the kind of experiment: X-ray crystal structure of complex, […] Å. It is filed as binding. The conditions noted are these: co-crystallised with 5 mM sugar; intra- and intermonomeric sites; reservoir pH 5.0.

Chain of LecB (PA-IIL) (Q9HYN5 2-115 limits assumed): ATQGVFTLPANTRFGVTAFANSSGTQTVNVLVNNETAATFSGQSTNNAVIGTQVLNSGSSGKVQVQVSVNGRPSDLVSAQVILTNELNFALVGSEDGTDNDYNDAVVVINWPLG
T1 sequence (Q0B4G1 1-87 limits assumed): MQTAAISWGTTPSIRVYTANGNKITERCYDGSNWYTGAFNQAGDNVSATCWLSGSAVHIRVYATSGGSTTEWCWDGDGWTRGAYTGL

Regarding `CC(=O)N[C@H]1[C@@H](O[C@H]2[C@@H](O)[C@@H](CO)OC(O)[C@@H]2O[C@@H]2O[C@@H](C)[C@@H](O)[C@@H](O)[C@@H]2O)O[C@H](CO)[C@H](O)[C@@H]1O` (some centres unmarked) [A tri], the Kd at LecB (PA-IIL) amounted to 10.3 µM.

Take `CC(=O)N[C@H]1C(O)O[C@H](CO)[C@@H](O)[C@@H]1O[C@@H]1O[C@H](CO)[C@H](O)[C@H](O)[C@H]1O[C@@H]1O[C@@H](C)[C@@H](O)[C@@H](O)[C@@H]1O` (some centres unmarked) [H type 1]: on LecB (PA-IIL), the Kd stood at 1.39 µM.

`CC(=O)N[C@H]1C(O)O[C@H](CO)[C@@H](O[C@@H]2O[C@H](CO)[C@H](O)[C@H](O)[C@H]2O[C@@H]2O[C@@H](C)[C@@H](O)[C@@H](O)[C@@H]2O)[C@@H]1O` (some centres unmarked) [H type 2]: the Kd at LecB (PA-IIL) came to 0.48 µM.

For the compound `CC(=O)N[C@H]1[C@H](O[C@H]2[C@@H](O)[C@@H](CO)OC(O)[C@@H]2O)O[C@H](CO)[C@@H](O[C@@H]2O[C@H](CO)[C@H](O)[C@H](O)[C@H]2O)[C@@H]1O[C@@H]1O[C@@H](C)[C@@H](O)[C@@H](O)[C@@H]1O` (some centres unmarked) [Le^x tetrasaccharide], on BambL, the “X-ray crystal structure of complex, 1.6 Å” value is listed as “BambL was cocrystallised with the Le^x tetrasaccharide”.

As for `CC(=O)N[C@H]1[C@H]([C@H](O)[C@H](O)CO)O[C@@](O[C@H]2[C@@H](O)[C@@H](CO)O[C@@H](O[C@H]3[C@H](O[C@@H]4O[C@@H](C)[C@@H](O)[C@@H](O)[C@@H]4O)[C@@H](CO)OC(O)[C@@H]3NC(C)=O)[C@@H]2O)(C(=O)O)C[C@@H]1O` (some centres unmarked) [sLe^a], the Kd at LecB (PA-IIL) was found to be 0.29 µM.
